# Several values for one entry are separate records, joined by “and”; a condition that tells them apart may be missing. Equal values may be shown once.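 Exposure lasted 48 hours, with cells grown in 96-well plates and compounds tested at five concentrations. GI50 marks 50% less growth. TGI is the concentration that stops growth completely.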
# How the values were obtained:
# Assay in all cases: NCI-60 cell line screen, 48 h
# [1] = system: UO-31 renal
# [2] = system: NCI-H23 lung
# [3] = system: OVCAR-4 ovarian
# [4] = system: HCC-2998 colon
# [5] = system: HOP-92 NSCLC
# [6] = system: 786-0 renal
# [7] = system: NCI-H460 lung
# [8] = system: SR leukemia
# [9] = system: SF-539 CNS
# [10] = system: SN12C renal
SMILES,TGI [1],TGI [2],TGI [3],TGI [4],TGI [5],TGI [6],TGI [7],TGI [8],TGI [9],TGI [10],GI50 [1],GI50 [2],GI50 [3],GI50 [4],GI50 [5],GI50 [6],GI50 [7],GI50 [8],GI50 [9],GI50 [10]
CCC(c1ccccc1)c1cc(C(C)(C)C)cc(C(C)(C)C)c1O (configuration not stated),32.3 µM,30.9 µM,29.3 µM,29.2 µM,30.1 µM,29 µM,31.3 µM,> 100 µM,34.2 µM,31.3 µM,–,–,–,–,–,–,–,–,–,–
O=C1/C(=C/c2ccc(C(F)(F)F)cc2)COc2ccc(O)c(O)c21,1.95 µM,3.21 µM,2.72 µM,3.16 µM,6.67 µM,2.85 µM,3.9 µM,2.53 µM,2.46 µM,2.5 µM,0.633 µM,1.61 µM,1.39 µM,1.7 µM,1.97 µM,1.32 µM,1.85 µM,0.267 µM,1.14 µM,1.15 µM
C=CCSC(C)=O,> 100 µM,> 100 µM,> 100 µM,> 100 µM,–,> 100 µM,> 100 µM,> 100 µM,> 100 µM,> 100 µM,–,–,–,–,–,–,–,–,–,–
N#CC(/C(CCCC(=O)Nc1cccc([N+](=O)[O-])c1)=N\NC(=O)c1c(O)ccc2ccccc12)c1nc2ccccc2s1 (configuration not stated),> 100 µM,> 100 µM,> 100 µM,–,> 100 µM,> 100 µM,> 100 µM,> 100 µM,66.3 µM,> 100 µM,–,–,–,–,–,–,–,–,–,–
COc1ccc(-c2c(-c3ccc(C#N)c(F)c3)nc(N3CCC(N)CC3)n(C)c2=O)cc1F,22.9 µM,91.6 µM,> 100 µM,26.7 µM,–,24.7 µM,37.1 µM,34.6 µM,29.3 µM,79.3 µM,9.31 µM,19.6 µM,29.3 µM,13 µM,–,11.7 µM,19.1 µM,12.2 µM,13.8 µM,19.3 µM
COc1ccc(C(=O)C(C(=O)C(=O)NCCCNC(=O)C(=O)C(C(=O)c2ccc(OC)cc2)c2ccc(OC)cc2)c2ccc(OC)cc2)cc1 (configuration not stated),> 100 µM,> 100 µM,> 100 µM,> 100 µM,> 100 µM,> 100 µM,> 100 µM,> 100 µM,> 100 µM,–,–,–,–,–,–,–,–,–,–,–
CN(C)c1ccc2[nH]c3c(C(N)=O)cc(=O)c(=O)c=3oc2c1,–,25.8 µM,6.42 µM,> 100 µM,8.58 µM,22.2 µM,> 100 µM,8.49 µM,4.43 µM,7.23 µM,–,1.1 µM,1.67 µM,4.9 µM,1.72 µM,3.19 µM,2.57 µM,0.942 µM,0.428 µM,1.95 µM
CCS(=O)(=O)c1ccc(OC)c(Nc2ncc(-c3cccc(F)c3)o2)c1,> 25 µM,> 25 µM,> 25 µM,> 25 µM,> 25 µM,> 25 µM,> 25 µM,> 25 µM,> 25 µM,> 25 µM,> 25 µM,> 25 µM,> 25 µM,> 25 µM,> 25 µM,> 25 µM,> 25 µM,> 25 µM,> 25 µM,> 25 µM
COc1ccc2c(c1)C(=O)c1c-2n(CCCN(C)C)c(=O)c2cc([N+](=O)[O-])ccc12,0.0294 µM,0.0849 µM,9.37 µM,0.255 µM,1.44 µM,< 0.01 µM,0.234 µM,–,< 0.01 µM,10.7 µM,< 0.01 µM,< 0.01 µM,0.0515 µM,0.0131 µM,0.0329 µM,< 0.01 µM,< 0.01 µM,< 0.01 µM,< 0.01 µM,< 0.01 µM
COc1cc(C2NC(=O)C(C#N)=C(Nc3cccc(C)c3)S2)ccc1O (configuration not stated),> 100 µM,> 100 µM,> 100 µM,> 100 µM,> 100 µM,> 100 µM,> 100 µM,> 100 µM,> 100 µM,> 100 µM,> 100 µM,> 100 µM,> 100 µM,> 100 µM,> 100 µM,> 100 µM,> 100 µM,> 100 µM,> 100 µM,> 100 µM
CSc1nc(SC)c2c(C)cn(COCCOC(=O)c3ccccc3)c2n1,> 100 µM,> 100 µM,> 100 µM,> 100 µM,99.7 µM,> 100 µM,> 100 µM,> 100 µM,> 100 µM,> 100 µM,–,–,–,–,–,–,–,–,–,–
COC1/C(=C\C(C)=O)c2ccccc2N1C(C)=O (configuration not stated),> 100 µM,> 100 µM,> 100 µM,> 100 µM,> 100 µM,> 100 µM,> 100 µM,> 100 µM,> 100 µM,> 100 µM,–,–,–,–,–,–,–,–,–,–
COc1ccc(/C=C/c2ccnc3ccccc23)cc1OC,0.478 µM,45.5 µM,24.8 µM,> 100 µM,–,> 100 µM,28.5 µM,54.2 µM,30 µM,62.1 µM,–,–,–,–,–,–,–,–,–,–
CNc1cc(-c2cccc(OC(F)(F)F)c2)nc2ccc(N3CCCC3)cc12,2.67 µM and 2.61 µM and 2.74 µM,3.67 µM and 3.62 µM and 3.32 µM,3.33 µM and 3.19 µM and 3.36 µM,3.5 µM and 3.48 µM and 3.23 µM,2.55 µM and 2.64 µM and 2.58 µM,2.91 µM and 3.22 µM and 2.97 µM,3.07 µM and 3.44 µM,1.78 µM and 4.22 µM,3.19 µM and 3.45 µM and 3.22 µM,3.36 µM and 3.14 µM and 3.26 µM,1.36 µM and 1.32 µM and 1.42 µM,1.8 µM and 1.94 µM and 1.74 µM,1.63 µM and 1.69 µM and 1.75 µM,1.93 µM and 1.94 µM and 1.75 µM,1.22 µM and 1.3 µM and 1.24 µM,1.56 µM and 1.71 µM and 1.55 µM,1.6 µM and 1.75 µM,0.31 µM and 1.56 µM,1.72 µM and 1.88 µM and 1.78 µM,1.76 µM and 1.68 µM and 1.71 µM
Fc1ccc(Nc2nc(Nc3ccc(-c4nc5ccccc5[nH]4)cc3)c3cn[nH]c3n2)cc1,4.32 µM,–,3.6 µM,3.05 µM,3.19 µM,3.11 µM,3.97 µM,5.9 µM,3.48 µM,4.47 µM,1.62 µM,–,1.6 µM,1.57 µM,1.5 µM,1.63 µM,1.99 µM,2.22 µM,1.77 µM,1.99 µM
COc1ccc(C(O)c2ccccn2)cc1 (configuration not stated),–,> 100 µM,> 100 µM,–,> 100 µM,> 100 µM,> 100 µM,> 100 µM,> 100 µM,> 100 µM,–,–,–,–,–,–,–,–,–,–

# Reference: PubChem BioAssay (NCI)
